In patent US20120128654A1, “Allantoin Administration for the Treatment of Neurodegenerative Disease and Neurotrauma” (UNIVERSITY OF CINCINNATI, priority 2009, published 2012):

Columns and labels:
nigral THir neurons = test: Unbiased stereological counts of THir cells in the substantia nigra after striatal 6-OHDA; type: in vivo, Sprague Dawley rats; details: experiment 2, KO alone vs control pellet, 4 weeks post-6-OHDA
Protocol: Rats were anesthetized prior to surgery with Equi-Thesin (0.3 ml/100 g body weight i.p.; chloral hydrate 42.5 mg/ml+sodium pentobarbital 9.72 mg/ml), their heads shaved, and then they were placed in a stereotaxic frame. Their skin was swabbed with Betadyne followed by 70% ETOH. The scalp was then opened to expose the skull. Two 1 mm holes were drilled into the skull and rats were injected in two sites in the striatum with 6-OHDA (MP Biomedicals, Solon, Ohio; 5 μg/μl 6-OHDA in 0.2% ascorbic acid, 0.9% saline solution). The coordinates for these injections were AP −1.6 mm, ML +2.4 mm, DV −4.2 mm and AP −0.2 mm, +ML 2.6 mm, DV −7.0 mm. The needle was zeroed at the skull directly above the injection site in order to target the DV coordinate. For each injection, the needle was lowered slowly to the injection site and 1 minute elapsed before injection commenced, 6-OHDA was injected at 0.5 μl/minute and at the end of the injection the needle was held in place for an additional 2 minutes prior to retraction. The wound area was cleaned with Betadine solution and the scalp was closed with surgical wound clips. This lesion paradigm results in a progressive loss of TH phenotype and frank DA cell death.
Animals were deeply anesthetized (60 mg/kg, pentobarbital, i.p.) and perfused intracardially with warm 0.9% saline containing 1 ml/L 10,000 USP heparin followed by ice-cold 0.9% saline. For immunoshistochemistry brains were removed, post fixed for 24 hours in 4% paraformaldehyde and transferred to 30% sucrose in 0.1M PO4 buffer. For determination of purine levels brains were immediately removed and flash frozen in 3-methyl butane. Brains were stored at −80° C. until analysis.
Brains were frozen on dry ice and sectioned at a 40 μm thickness using a sliding microtome. Every sixth section through the SN was processed for labeling with antisera against TH. Following blocking in 10% normal goat serum, tissue was incubated in primary antisera directed against TH (Chemicon MAB318, mouse anti TH 1:4,000) overnight at room temperature. Following primary incubation, sections were incubated in biotinylated secondary antisera against mouse IgG (Chemicon AP124B, 1:400) followed by the Vector ABC detection kit employing horseradish peroxidase (Vector Laboratories, Burlingame, Calif.). Antibody labeling was visualized by exposure to 0.5 mg/ml 3,3′ diaminobenzidine (DAB) and 0.03% H2O2 in Tris buffer. Sections were mounted on subbed slides, dehydrated to xylene and coverslipped with Cytoseal (Richard-Allan Scientific, Waltham, Mass.).
Unbiased stereological counts of THir cells were performed using a BX52 Olympus microscope (Olympus America Inc.) interfaced with Microbrightfield stereological software and a Microfire CCD camera (Optronics, Goleta, Calif.). Utilizing 2 μm guard zones and a 50 μm×50 μm counting frame a grid size of 112 μm×183 μm was employed to assure that all coefficient of error values were ≦0.10. Using the optical fractionator principle, the regions of interest were individually outlined under a low magnification (1.25×). Using a 60× magnification lens with a 1.4 N/A the section thickness was empirically determined by first bringing the top of the section into focus and then using Microbrightfield software to step through the z-axis in 1 μm increments until the very bottom of the section was in focus. […]

striatal 6-OHDA infusion = details: peripheral adenosine, Wistar rats; cited from earlier work

| SMILES | number of THir neurons in either the intact or lesioned SN (nigral THir neurons) | neuroprotection against striatal 6-OHDA infusion (striatal 6-OHDA infusion) |
| --- | --- | --- |
| O=C([O-])c1nc(=O)[nH]c(=O)[nH]1.[K+] [KO, potassium oxonate] | no significant impact |  |
| Nc1ncnc2c1ncn2[C@@H]1O[C@H](CO)[C@@H](O)[C@H]1O [adenosine] |  | functional neuroprotection |
